# Measurements: patent publication US12252484B2, “Pyrazolopyridine compounds for the treatment of autoimmune disease” (Hoffmann-La Roche Inc., priority 2018, dated 2025)
# Where two headings read alike, the source gives them in different places.
# Biological target: T1, human TLR9 (Homo sapiens, UniProt Q9NR96)
# T1 sequence (Q9NR96 26-1032): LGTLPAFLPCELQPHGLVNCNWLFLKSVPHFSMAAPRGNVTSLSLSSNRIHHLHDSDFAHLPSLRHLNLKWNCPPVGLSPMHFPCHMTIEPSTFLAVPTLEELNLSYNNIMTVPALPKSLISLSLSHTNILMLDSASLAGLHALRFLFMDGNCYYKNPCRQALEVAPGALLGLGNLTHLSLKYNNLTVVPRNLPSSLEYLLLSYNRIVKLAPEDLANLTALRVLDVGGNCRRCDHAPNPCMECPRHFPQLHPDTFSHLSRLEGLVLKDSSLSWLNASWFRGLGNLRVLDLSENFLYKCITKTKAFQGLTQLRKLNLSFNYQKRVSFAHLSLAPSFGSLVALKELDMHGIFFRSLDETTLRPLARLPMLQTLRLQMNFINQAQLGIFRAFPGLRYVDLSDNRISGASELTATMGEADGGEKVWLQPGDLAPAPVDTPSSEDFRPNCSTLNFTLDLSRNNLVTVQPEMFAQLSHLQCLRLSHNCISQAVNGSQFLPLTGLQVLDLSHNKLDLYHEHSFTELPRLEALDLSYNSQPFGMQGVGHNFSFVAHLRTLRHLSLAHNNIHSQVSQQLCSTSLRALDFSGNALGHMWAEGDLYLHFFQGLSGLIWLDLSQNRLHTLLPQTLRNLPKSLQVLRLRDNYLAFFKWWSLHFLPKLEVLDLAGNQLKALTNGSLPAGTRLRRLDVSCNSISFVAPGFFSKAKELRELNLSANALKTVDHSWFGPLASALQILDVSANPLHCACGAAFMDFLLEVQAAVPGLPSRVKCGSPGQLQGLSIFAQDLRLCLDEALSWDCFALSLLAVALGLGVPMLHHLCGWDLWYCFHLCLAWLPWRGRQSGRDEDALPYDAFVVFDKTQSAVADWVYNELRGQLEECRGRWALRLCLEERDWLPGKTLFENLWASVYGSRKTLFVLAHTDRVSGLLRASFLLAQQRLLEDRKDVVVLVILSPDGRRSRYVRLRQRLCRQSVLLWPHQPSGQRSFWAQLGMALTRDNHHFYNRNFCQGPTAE
# Experiment: HEK293-Blue-hTLR-9 cells assay (SEAP reporter, ODN2006 stimulation)
# Assay type: cell-based
# Description: The following tests were carried out in order to determine the activity of the compounds of formula (I) in HEK293-Blue-hTLR-7/8/9 cells assay.
# HEK293-Blue-hTLR-9 Cells Assay:
# A stable HEK293-Blue-hTLR-9 cell line was purchased from InvivoGen (Cat. #: hkb-htlr9, San Diego, California, USA). These cells were originally designed for studying the stimulation of human TLR9 by monitoring the activation of NF-κB. A SEAP (secreted embryonic alkaline phosphatase) reporter gene was placed under the control of the IFN-β minimal promoter fused to five NF-κB and AP-1-binding sites. The SEAP was induced by activating NF-κB and AP-1 via stimulating HEK-Blue hTLR9 cells with TLR9 ligands. Therefore the reporter expression was declined by TLR9 antagonist under the stimulation of a ligand, such as ODN2006 (Cat. #: tlrl-2006-1, Invivogen, San Diego, California, USA), for incubation of 20 hrs. The cell culture supernatant SEAP reporter activity was determined using QUANTI-Blue™ kit (Cat. #: rep-qb1, Invivogen, San Diego, California, USA) at a wavelength of 640 nm, a detection medium that turns purple or blue in the presence of alkaline phosphatase.
# HEK293-Blue-hTLR9 cells were incubated at a density of 250,000˜450,000 cells/mL in a volume of 170 μL in a 96-well plate in Dulbecco's Modified Eagle's medium (DMEM) containing 4.5 g/L glucose, 50 U/mL penicillin, […], 2 mM L-glutamine, 10% (v/v) heat-inactivated fetal bovine serum with addition of 20 μL test compound in a serial dilution in the presence of final DMSO at 1% and 10 μL of 20 uM ODN2006 in above DMEM, perform incubation under 37° C. in a CO2 incubator for 20 hrs. Then 20 μL of the supernatant from each well was incubated with 180 μL Quanti-blue substrate solution at 37° C. for 2 hrs and the absorbance was read at 620˜655 nm using a spectrophotometer. The signalling pathway that TLR9 activation leads to downstream NF-κB activation has been widely accepted, and therefore similar reporter assay was modified for evaluating TLR9 antagonist.
# [1] = HEK293-Blue-hTLR-9 cells, ODN2006 ligand, 20 hrs incubation, read-out: TLR9 IC50
IC50 [1],SMILES,IC50
> 100 µM,"COCCNC(=O)[C@H]1CN(c2ccc(C#N)n3nccc23)C[C@@H](C)O1 [Example 9, (2R,6R)-4-(7-cyanopyrazolo[1,5-a]pyridin-4-yl)-N-(2-methoxyethyl)-6-methyl-morpholine-2-carboxamide]",–
1.1 µM,"C[C@@H]1CN(c2ccc(C#N)n3nccc23)C[C@H](C(=O)NC2C3CNC[C@@H]32)O1 (stereo partly drawn) [Example 31, Trans-(2R,6R)-N-(3-azabicyclo[3.1.0]hexan-6-yl)-4-(7-cyanopyrazolo[1,5-a]pyridin-4-yl)-6-methyl-morpholine-2-carboxamide]",–
4.8 µM,"C[C@@H]1CN(c2ccc(C#N)n3nccc23)C[C@H](C(=O)NC2CCCNCC2)O1 (stereo partly drawn) [Example 6, (2R,6R)-N-(azepan-4-yl)-4-(7-cyanopyrazolo[1,5-a]pyridin-4-yl)-6-methyl-morpholine-2-carboxamide]",–
18 µM,"C[C@@H]1CN(c2ccc(C#N)n3nccc23)C[C@H](C(=O)NC2CC3COCC(C2)N3)O1 (stereo partly drawn) [Example 22, Endo-(2R,6R)-4-(7-cyanopyrazolo[1,5-a]pyridin-4-yl)-6-methyl-N-[3-oxa-9-azabicyclo[3.3.1]nonan-7-yl]morpholine-2-carboxamide]",–
> 100 µM,"C[C@@H]1CN(c2ccc(C#N)n3nccc23)C[C@H](C(=O)N[C@H]2CNC[C@H]2F)O1 [Example 2, (2R,6R)-4-(7-cyanopyrazolo[1,5-a]pyridin-4-yl)-N-[(3S,4R)-4-fluoropyrrolidin-3-yl]-6-methyl-morpholine-2-carboxamide]",–
25 µM,"C[C@@H]1CN(c2ccc(C#N)n3nccc23)C[C@H](C(=O)NC2CCNC2)O1 (stereo partly drawn) [Example 25, (2R,6R)-4-(7-cyanopyrazolo[1,5-a]pyridin-4-yl)-6-methyl-N-pyrrolidin-3-yl-morpholine-2-carboxamide]",–
77 µM,"C[C@@H]1CN(c2ccc(C#N)n3nccc23)C[C@H](C(=O)NC2CNC[C@H]2F)O1 (stereo partly drawn) [Example 5, Cis-(2R,6R)-4-(7-cyanopyrazolo[1,5-a]pyridin-4-yl)-6-methyl-N-(4-fluoropyrrolidin-3-yl) morpholine-2-carboxamide]",–
48 µM,"C[C@@H]1CN(c2ccc(C#N)n3nccc23)C[C@H](C(=O)NCC2CCNC2)O1 (stereo partly drawn) [Example 40, (2R,6R)-4-(7-cyanopyrazolo[1,5-a]pyridin-4-yl)-6-methyl-N-(pyrrolidin-3-ylmethyl)morpholine-2-carboxamide]",–
> 100 µM,"C[C@@H]1CN(c2ccc(C#N)n3nccc23)C[C@H](C(=O)NC23CC(CO)(C2)C3)O1 [Example 15, (2R,6R)-4-(7-cyanopyrazolo[1,5-a]pyridin-4-yl)-N-[3-(hydroxymethyl)-1-bicyclo[1.1.1]pentanyl]-6-methyl-morpholine-2-carboxamide]",–
31 µM,"C[C@H]1C[C@@H](NCC#N)CN(c2ccc(C#N)n3nccc23)C1 [Example 46, 4-[(3R,5S)-3-(cyanomethylamino)-5-methyl-1-piperidyl]pyrazolo[1,5-a]pyridine-7-carbonitrile]",–
19 µM,"C[C@@H]1CN(c2ccc(C#N)n3nccc23)C[C@H](C(=O)NCC(C)(C)CN)O1 [Example 39, (2R,6R)-N-(3-amino-2,2-dimethyl-propyl)-4-(7-cyanopyrazolo[1,5-a]pyridin-4-yl)-6-methyl-morpholine-2-carboxamide]",–
–,"C[C@@H]1CN(c2ccc(C#N)n3nccc23)C[C@H](C(=O)NC2CC3CCCC(C2)N3C)O1 (stereo partly drawn) [Example 35, (2R,6R)-4-(7-cyanopyrazolo[1,5-a]pyridin-4-yl)-6-methyl-N-(9-methyl-9-azabicyclo[3.3.1]nonan-3-yl)morpholine-2-carboxamide]",11 µM
13 µM,"C[C@@H]1CN(c2ccc(C#N)n3nccc23)C[C@H](C(=O)NC2C3CCC2CNC3)O1 (stereo partly drawn) [Example 26, (2R,6R)-N-(3-azabicyclo[3.2.1]octan-8-yl)-4-(7-cyanopyrazolo[1,5-a]pyridin-4-yl)-6-methyl-morpholine-2-carboxamide]",–
> 100 µM,"C[C@@H]1CN(c2ccc(C#N)n3nccc23)C[C@H](C(=O)NC2CCOCC2)O1 [Example 4, (2R,6R)-4-(7-cyanopyrazolo[1,5-a]pyridin-4-yl)-6-methyl-N-tetrahydropyran-4-yl-morpholine-2-carboxamide]",–
1.8 µM,"C[C@@H]1CN(c2ccc(C#N)n3nccc23)C[C@H](C(=O)Nc2ccc(C(=O)N3CCNCC3)cc2)O1 [Example 42, (2R,6R)-4-(7-cyanopyrazolo[1,5-a]pyridin-4-yl)-6-methyl-N-[4-(piperazine-1-carbonyl)phenyl]morpholine-2-carboxamide]",–
> 100 µM,"C[C@@H]1CN(c2ccc(C#N)n3nccc23)C[C@H](C(=O)NCC2CNCC2(F)F)O1 (stereo partly drawn) [Example 18, (2R,6R)-4-(7-cyanopyrazolo[1,5-a]pyridin-4-yl)-N-[(4,4-difluoropyrrolidin-3-yl)methyl]-6-methyl-morpholine-2-carboxamide]",–
36 µM,"C[C@@H]1CN(c2ccc(C#N)n3nccc23)C[C@H](C(=O)NC2CC3(CNC3)C2)O1 [Example 3, (2R,6R)-N-(2-azaspiro[3.3]heptan-6-yl)-4-(7-cyanopyrazolo[1,5-a]pyridin-4-yl)-6-methyl-morpholine-2-carboxamide]",–
7.7 µM,"C[C@@H]1CN(c2ccc(C#N)n3nccc23)C[C@H](C(=O)NC2CC3CCC(C2)N3C)O1 (stereo partly drawn) [Example 33, (2R,6R)-4-(7-cyanopyrazolo[1,5-a]pyridin-4-yl)-6-methyl-N-(8-methyl-8-azabicyclo[3.2.1]octan-3-yl)morpholine-2-carboxamide]",–
9.7 µM,"C[C@@H]1CN(c2ccc(C#N)n3nccc23)C[C@H](C(=O)NC2CN(C)CC23CC3)O1 (stereo partly drawn) [Example 32, (2R,6R)-4-(7-cyanopyrazolo[1,5-a]pyridin-4-yl)-6-methyl-N-(5-methyl-5-azaspiro[2.4]heptan-7-yl)morpholine-2-carboxamide]",–
1.7 µM,"C[C@@H]1CN(c2ccc(C#N)n3nccc23)C[C@H](C(=O)N2CCC3(CCNCC3)CC2)O1 [Example 28, 4-[(2R,6R)-2-(3,9-diazaspiro[5.5]undecane-3-carbonyl)-6-methyl-morpholin-4-yl]pyrazolo[1,5a]pyridine-7-carbonitrile]",–
> 100 µM,"C[C@@H]1CN(c2ccc(C#N)n3nccc23)C[C@H](C(=O)NC2CC3CCC(C2)N3)O1 (stereo partly drawn) [Example 23, Exo-(2R,6R)-N-[8-azabicyclo[3.2.1]octan-3-yl]-4-(7-cyanopyrazolo[1,5-a]pyridin-4-yl)-6-methyl-morpholine-2-carboxamide]",–
70 µM,"C[C@@H]1CN(c2ccc(C#N)n3nccc23)C[C@H](C(=O)N2CC(N)C2)O1 [Example 8, 4-[(2R,6R)-2-(3-aminoazetidine-1-carbonyl)-6-methyl-morpholin-4-yl]pyrazolo[1,5a]pyridine-7-carbonitrile]",–
58 µM,"C[C@@H]1CN(c2ccc(C#N)n3nccc23)C[C@H](C(=O)NCC2CN(C)CCO2)O1 (stereo partly drawn) [Example 7, (2R,6R)-4-(7-cyanopyrazolo[1,5-a]pyridin-4-yl)-6-methyl-N-[(4-methylmorpholin-2-yl)methyl]morpholine-2-carboxamide]",–
13 µM,"C[C@@H]1CN(c2ccc(C#N)n3nccc23)C[C@H](C(=O)NC2CCNCC2)O1 [Example 24, (2R,6R)-4-(7-cyanopyrazolo[1,5-a]pyridin-4-yl)-6-methyl-N-(4-piperidyl)morpholine-2-carboxamide]",–
